According to patent US20230373940A1, “CARBOXYLIC DIARYLTHIAZEPINEAMINES AND USES THEREOF” (Kures, Inc., priority 2020, published 2023):
Structures can show the parent of a compound that is named as a salt.

Legend:
[1] = molecular target: T1, human mu opioid receptor (MOR) (Homo sapiens, UniProt P35372); experiment: BRET assay measuring G protein activation, agonist activity at human MOR (transfected HEK-293T cells); type: cell-based; conditions: for MOR potency relative to analogs lacking substitution at position 2: dihalo-substituted core
T1 construct: expressed in transfected cells; host or cells: HEK-293T
Procedure: (§1) The diarylthiazepinamine carboxylic acids (9) were tested for agonist activity at the human mu opioid receptor (MOR) and delta opioid receptor (DOR) using bioluminescence resonance energy transfer (BRET) assays measuring G protein activation as previously described (Table 1) (Rives, M.-L. et al. 2012; Negri, A. et al. 2013).
(§2) Transfection. Human MOR cDNA was transfected alongside […] with RLuc8 inserted at position 91 (GαoB-RLuc8), Gβ1 (β1), and Gγ2 fused to the full-length mVenus at its N terminus (mVenus-γ2) into HEK-293T cells (5×10^6 cells/plate) in 10-cm dishes using PEI (Polysciences Inc.; Warrington, PA) in a 1:1 ratio diluted in Opti-MEM (Life Technologies Corp.; Grand Island, NY) to assay for G protein activation as described previously (Rives, M.-L. et al. 2012; Negri, A. et al. 2013). Cells were maintained in Dulbecco's Modified Eagle Medium (high glucose #11965; Life Technologies) supplemented with 10% FBS (Premium Select, Atlanta Biologicals; Atlanta, GA) and 100 U/mL penicillin and 100 μg/mL streptomycin (#15140, Life Technologies). After 24 hours the media was changed, and the experiment was performed 24 hours later (48 hours after transfection).
(§3) BRET. Transfected cells were dissociated and re-suspended in phosphate-buffered saline (PBS). Approximately 200,000 cells/well were added to a black-framed, white well 96-well plate (#60050; Perkin Elmer; Waltham, MA). The microplate was centrifuged and the cells were re-suspended in PBS. Then 5 μM of the luciferase substrate coelenterazine H was added to each well for 5 minutes. Following coelenterazine H addition, ligands were added and the BRET signal was measured at 5 minutes on a PHERAstar FS plate reader. Quantification of the BRET signal required calculating the ratio of the light emitted by the energy acceptor, mVenus (510-540 nm), over the light emitted by the energy donor, RLuc8 (485 nm). […] Dose response curves were fit using a three-parameter logistics equation in GraphPad Prism 6.
The additional diarylthiazepinamine carboxylic acids (9i, 9j, 9k, and 91) were tested for agonist activity at the human mu opioid receptor (MOR) using bioluminescence resonance energy transfer (BRET) assays measuring G protein activation (Table 2) as previously described (Rives, M.-L. et al. 2012; Negri, A. et al. 2013; Example 2 of the present application).

[2] = molecular target: T2, human delta opioid receptor (DOR) (Homo sapiens, UniProt P41143); experiment: BRET assay measuring G protein activation, agonist activity at human DOR; type: cell-based
T2 construct: expressed in transfected cells
Procedure: as §1, §2, §3

[3] = Solubility Determination (Method A), distilled water, stirred 24 h; type: physicochemical
Procedure: (§4) Solubility Determination (Method A). A quantity of the appropriate compound sufficient to saturate the resulting solution was added to distilled water (0.50 mL) and the mixture was stirred vigorously for 24 h at room temperature (20° C.). The mixture was then centrifuged for 3 min. at 21,000×g and the stir bar was carefully removed. The mixture was then centrifuged again for 5 min. at 21,000×g and the supernatant was carefully removed by syringe and passed through a […] syringe filter. An aliquot (300 μL) of the filtered supernatant was concentrated in vacuo and the mass of the residual solids determined in order to calculate the solubility.

[4] = for Solubility, 100 mM HCl, pH 1 (mg/mL): pH 1, 25° C.
Procedure: Solubility Determination. Test compounds (4 mg) were added to 200 μL of one of the tested aqueous solutions (hereinafter—buffer): 100 mM aqueous HCl (pH 1) or 100 mM Na-phosphate buffer (pH 7). The obtained suspensions/solutions with the theoretical concentration of 20 mg/mL were further allowed to equilibrate at 25° C. on a thermostatic orbital shaker for 24 hours and then centrifuged at 6000 rpm for 4 minutes and filtered through HTS filter plates using a vacuum manifold. In parallel, compound dilutions in 50% acetonitrile/HCl and 30% acetonitrile/Na-phosphate buffer mixes were prepared to theoretical concentrations of 0 mg/mL (blank), 0.1 mg/mL, 0.2 mg/mL, and 0.4 mg/mL in duplicates to generate calibration curves falling within the optimum UV absorption range. The filtrates of test compounds were diluted 100-fold with acetonitrile-buffer mixtures before measuring. The filtered supernatant test samples were transferred to 96-well plates and measured for absorbance in the 200-550 nm range with 5 nm step increment. The concentrations of compounds in supernatants were calculated using the measured absorbance and the previously determined calibration curve. Proper absorbance wavelengths for calculations were selected for each compound manually based on absorbance maxima (absolute absorbance unit values for the minimum and maximum concentration points within 0-2.5 OD range).

male C57BL/6 mice = experiment: Analgesic activity in hot plate assay; type: in vivo, mouse; conditions: for ED50: Mus musculus, sc, hot plate 55° C., male C57BL/6 mice; for Analgesic activity in the mouse hot plate assay: much higher potency than tianeptine
Procedure: Analgesic Activity in Hot Plate Assay. Male C57BL/6 mice were timed for latency to jump on a hot-plate apparatus set to 55° C., using a 30 s cutoff to prevent tissue damage. Following a baseline test, animals were injected subcutaneously (s.c.) with escalating doses of drug and tested at […] (time of maximal effect). Dose-response curves were fit via nonlinear regression using GraphPad Prism (La Jolla, CA).

[5] = Solubility Determination (Method B), distilled water, orbital shaker 2 h; type: physicochemical; conditions: neutral unbuffered water, vs iodotianeptine
Procedure: as §4, with “B).” for “A).”, “agitated on an orbital shaker” for “was stirred vigorously”, “2” for “24”, “centrifuged” for “centrifuged for 3 min. at 21,000×g and the stir bar was carefully removed. The mixture was then centrifuged again”

MOR = MOR (Homo sapiens, UniProt P35372); conditions: Gassaway, M. M. et al. 2014; cited from earlier work
DOR = DOR (Homo sapiens, UniProt P41143); conditions: Gassaway, M. M. et al. 2014; cited from earlier work
[6] = average of 2 independent trials

T1 sequence (P35372 whole entry): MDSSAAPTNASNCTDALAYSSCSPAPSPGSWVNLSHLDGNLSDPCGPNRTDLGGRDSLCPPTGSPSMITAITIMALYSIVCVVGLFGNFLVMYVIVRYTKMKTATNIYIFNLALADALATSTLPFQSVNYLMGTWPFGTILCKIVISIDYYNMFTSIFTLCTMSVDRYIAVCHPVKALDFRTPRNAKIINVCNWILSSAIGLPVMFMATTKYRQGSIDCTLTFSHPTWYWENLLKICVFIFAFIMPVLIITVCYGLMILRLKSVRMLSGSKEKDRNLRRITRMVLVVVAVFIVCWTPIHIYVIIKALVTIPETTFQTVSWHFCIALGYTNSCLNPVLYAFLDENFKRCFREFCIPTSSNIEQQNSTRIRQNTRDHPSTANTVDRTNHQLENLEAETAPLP
T2 sequence (P41143 whole entry): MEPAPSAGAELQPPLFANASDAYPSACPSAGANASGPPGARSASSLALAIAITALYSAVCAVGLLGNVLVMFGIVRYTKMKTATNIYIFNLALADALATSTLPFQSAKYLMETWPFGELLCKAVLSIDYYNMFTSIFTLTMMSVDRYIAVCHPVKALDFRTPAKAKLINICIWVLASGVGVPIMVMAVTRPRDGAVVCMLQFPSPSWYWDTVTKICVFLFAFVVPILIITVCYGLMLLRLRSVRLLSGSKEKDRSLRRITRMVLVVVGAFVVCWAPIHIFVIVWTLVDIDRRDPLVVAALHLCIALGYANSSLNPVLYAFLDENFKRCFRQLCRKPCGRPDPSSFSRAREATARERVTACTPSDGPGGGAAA
Sequence of MOR (P35372 whole entry): as the sequence (P35372 whole entry) above
Sequence of DOR (P41143 whole entry): as the sequence (P41143 whole entry) above

`CN1c2ccccc2C(NCCCCCCCC(=O)O)c2ccc(I)cc2S1(=O)=O` (racemic) [Compound 9e, 8-((3-Iodo-6-methyl-5,5-dioxido-6,11-dihydrodibenzo[c,f][1,2]thiazopin-11-yl)amino) octanoic acid hydrochloride salt] showed an EC50 [1] of 0.0242 ± 0.011 µM and an EC50 [2] of 0.724 ± 0.099 µM.

`CN1c2ccccc2C(NCCCCCCCCCC(=O)O)c2ccc(I)cc2S1(=O)=O` (racemic) [Compound 9g, 10-((3-Iodo-6-methyl-5,5-dioxido-6,11-dihydrodibenzo[c,f][1,2]thiazopin-11-yl)amino)decanoic acid hydrochloride salt] gave an EC50 [1] of 0.0266 ± 0.0018 µM and an EC50 [2] of 0.262 ± 0.025 µM.

For `CN1c2ccccc2C(NCCCCCCC(=O)O)c2cc(F)c(Br)cc2S1(=O)=O.Cl` (stereo not drawn) [Compound 9b, 7-((3-Bromo-2-fluoro-6-methyl-5,5-dioxido-6,11-dihydrodibenzo[c,f][1,2]thiazopin-11-yl)amino) heptanoic acid hydrochloride salt], the “MOR potency relative to analogs lacking substitution at position 2” value [1] was “equipotent or more potent”, the “Fold more soluble than analogous monohalo counterpart” value ([3]; neutral unbuffered water, vs bromotianeptine) was 2-3 fold and the “Aqueous Solubility (mg/mL @ 20° C.)” value ([3]; neutral water, room temperature (20° C.), Method A, average of 2 independent trials) was 9.8 mg/mL. For the same compound, the “Solubility, 100 mM HCl, pH 1 (mg/mL)” value [4, 6] was 1.1 mg/mL, the “Solubility, 100 mM Na phosphate buffer, pH 7 (mg/mL)” value ([4]; pH 7, 25° C., average of 2 independent trials) was 0.84 mg/mL and the ED50 (male C57BL/6 mice) was 5.1 mg/kg. For the same compound, the “Analgesic activity in the mouse hot plate assay” value (male C57BL/6 mice) was “potent analgesics”.

For `CSc1ccc2c(c1)S(=O)(=O)N(C)c1ccccc1C2NCCCCCCC(=O)O` (stereo not drawn) [Compound 9c, 7-((6-Methyl-3-(methylthio)-5,5-dioxido-6,11-dihydrodibenzo[c,f][1,2]thiazopin-11-yl)amino)heptanoic acid], the “Human DOR agonist type (partial / full agonist)” value [2] was “partial agonist” and the “DOR Emax relative to the control agonist DPDPE” value ([2]; FIG. 1) was “lesser Emax than the control agonist DPDPE”.

With `CN1c2ccccc2C(NCCCCCCC(=O)O)c2cc(Cl)c(Cl)cc2S1(=O)=O.Cl` (stereo not drawn) [Compound 9i, 7-((2,3-dichloro-6-methyl-5,5-dioxido-6,11-dihydrodibenzo[c,f][1,2]thiazopin-11-yl)amino) heptanoic acid hydrochloride salt] the “MOR potency relative to analogs lacking substitution at position 2” value [1] was “equipotent or more potent”.

With `CN1c2ccccc2C(NCCCCCCC(=O)O)c2cc(F)c(Cl)cc2S1(=O)=O.Cl` (stereo not drawn) [Compound 9j, 7-((3-chloro-2-fluoro-6-methyl-5,5-dioxido-6,11-dihydrodibenzo[c,f][1,2]thiazopin-11-yl)amino) heptanoic acid hydrochloride salt] the “MOR potency relative to analogs lacking substitution at position 2” value [1] was “equipotent or more potent” and the “Fold more soluble than monohalo counterpart at pH 1” value ([4]; pH 1) was 8 fold.

With `CN1c2ccccc2C(NCCCCCCC(=O)O)c2cc(F)c(I)cc2S1(=O)=O.Cl` (stereo not drawn) [Compound 9k, 7-((2-fluoro-3-iodo-6-methyl-5,5-dioxido-6,11-dihydrodibenzo[c,f][1,2]thiazopin-11-yl)amino)heptanoic acid hydrochloride salt] the “MOR potency relative to analogs lacking substitution at position 2” value [1] was “equipotent or more potent”, the “Fold more soluble than analogous monohalo counterpart” value [5] was 2-3 fold and the ED50 (male C57BL/6 mice) was 1.7 mg/kg. For the same compound, the “Analgesic activity in the mouse hot plate assay” value (male C57BL/6 mice) was “potent analgesics”.

For `CN1c2ccccc2C(NCCCCC(=O)O)c2cc(F)c(Br)cc2S1(=O)=O.Cl` (stereo not drawn) [Compound 91, 5-((3-bromo-2-fluoro-6-methyl-5,5-dioxido-6,11-dihydrodibenzo[c,f][1,2]thiazepin-11-yl)amino) pentanoic acid hydrochloride salt], the “MOR potency relative to analogs lacking substitution at position 2” value [1] was “equipotent or more potent”.

In the case of `CCOC(=O)CCCCCCNC1c2ccccc2N(C)S(=O)(=O)c2cc(SC)ccc21` (stereo not drawn) [Ester Analog of 9c, Ethyl 7-((6-methyl-3-(methylthio)-5,5-dioxido-6,11-dihydrodibenzo[c,f][1,2]thiazepin-11-yl)amino)heptanoate], the “Human DOR agonist type (partial / full agonist)” value [2] is reported as “partial agonist”.

With `CN1c2ccccc2C(NCCCCCCC(=O)[O-])c2ccc(Cl)cc2S1(=O)=O.[Na+]` (stereo not drawn) [Tianeptine (Na salt), Tianeptine, reference compound] the ED50 (male C57BL/6 mice) was 15 mg/kg.

In the case of `CN1c2ccccc2C(NCCCCCCC(=O)O)c2ccc(Cl)cc2S1(=O)=O` (stereo not drawn) [Tianeptine, tianeptine], the “Agonist activity at the MOR (reported)” value (MOR) is listed as “full agonist” and the “Agonist activity at the DOR (reported)” value (DOR) is listed as “low potency agonist activity”.

With `CN1c2ccccc2C(NCCCCCCC(=O)O)c2ccc(Br)cc2S1(=O)=O.Cl` (stereo not drawn) [bromotianeptine, reference compound] the “Solubility, 100 mM HCl, pH 1 (mg/mL)” value [4, 6] was <0.1 mg/mL.

With `CN1c2ccccc2C(NCCCCCCC(=O)O)c2ccc(I)cc2S1(=O)=O.Cl` (stereo not drawn) [iodotianeptine, reference compound] the “Solubility, 100 mM HCl, pH 1 (mg/mL)” value [4, 6] was <0.1 mg/mL.
